According to patent EP4678627A1, “NOVEL FERROPTOSIS INHIBITORS” (Universiteit Antwerpen, priority 2024, dated 2026):

Assay: Human liver microsomal stability
Details: Corning ultra pool human liver microsome (HLM), NADPH, 1 µM, 0.5 mg/ml protein

## COc1ccc2c(c1)[C@]13CCCC[C@@H]1[C@H](C2)N(C)CC3 [Dextromethorphan]
  Microsomal stability in human t1/2: 40.0 min
